{
  "source": "patent US6677316B2",
  "about": "“Adenosine derivatives and methods of administration” (SmithKline Beecham Corporation, priority 1998, dated 2004)",
  "key": {"[1]": {"target": "T1, human adenosine A1 receptor (Homo sapiens, UniProt P30542)", "T1 construct": "expressed in transfected cells; host or cells: Chinese hamster ovary (CHO) cells with CRE/SPAP/HYG reporter elements", "T1 sequence (P30542 1-326)": "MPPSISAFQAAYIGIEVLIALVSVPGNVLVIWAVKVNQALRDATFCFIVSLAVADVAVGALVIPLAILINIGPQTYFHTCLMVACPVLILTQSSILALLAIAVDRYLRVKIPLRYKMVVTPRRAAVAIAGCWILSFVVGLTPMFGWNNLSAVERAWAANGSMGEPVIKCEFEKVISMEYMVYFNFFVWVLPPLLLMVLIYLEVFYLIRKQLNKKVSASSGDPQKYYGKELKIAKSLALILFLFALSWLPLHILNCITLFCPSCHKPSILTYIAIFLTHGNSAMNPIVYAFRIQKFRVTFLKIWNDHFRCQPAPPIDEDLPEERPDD", "experiment": "Reporter gene assay (CRE/SPAP) in CHO cells, agonist potency relative to NECA, adenosine A1 receptor", "format": "cell-based", "design": "key: equipotent concentration ratio, NECA = 1", "conditions": "ECR = equipotent concentration ratio relative to NECA = 1, inhibition of forskolin-stimulated SPAP production", "experimental": "(§1) Reporter Gene Experiments\n(§2) Agonist activity was measured in Chinese hamster ovary (CHO) cells containing the CRE/SPAP/HYG (CRE=cyclic AMP response element; HYG=hygromycin resistance; SPAP=secreted placental alkaline phosphatase) reporter gene elements, which upon stimulation of cAMP levels produced SPAP. A cell line was used, which was stably transfected with either the human adenosine A1 receptor or the human adenosine A3 receptor in addition to the above elements. Cells were plated out in 96-well plates in culture medium and incubated at 37° C. for 1 hour. For measurement of potency, agonists were added to the appropriate wells at a concentration range of approximately 10^−10- 10^−5M. 15Min later, cAMP levels were stimulated by addition of a maximal concentration of forskolin. All cells were then incubated for a further 5 hours at 37° C., and cooled to room temperature, after which a substrate for the phosphatase (para-nitrophenol phosphate, pNPP), which is converted by SPAP to a coloured reagent) was then added and the 96-well -plates were read in a plate reader. From these readings, the concentration-dependence of the inhibition by the agonist for forskolin-stimulated SPAP production can be calculated. One of the agonists tested on each 96-well plate was the standard non-selective agonist, N-ethylcarboxamidoadenosine (NECA), and the potency of all test agonists is expressed relative to that of the NECA standard.\n(§3) (ECR=equipotent concentration ratio relative to NECA=1)"}, "[2]": {"target": "T2, human adenosine A3 receptor (Homo sapiens, UniProt P0DMS8)", "T2 construct": "expressed in transfected cells; host or cells: Chinese hamster ovary (CHO) cells with CRE/SPAP/HYG reporter elements", "T2 sequence (P0DMS8 1-318)": "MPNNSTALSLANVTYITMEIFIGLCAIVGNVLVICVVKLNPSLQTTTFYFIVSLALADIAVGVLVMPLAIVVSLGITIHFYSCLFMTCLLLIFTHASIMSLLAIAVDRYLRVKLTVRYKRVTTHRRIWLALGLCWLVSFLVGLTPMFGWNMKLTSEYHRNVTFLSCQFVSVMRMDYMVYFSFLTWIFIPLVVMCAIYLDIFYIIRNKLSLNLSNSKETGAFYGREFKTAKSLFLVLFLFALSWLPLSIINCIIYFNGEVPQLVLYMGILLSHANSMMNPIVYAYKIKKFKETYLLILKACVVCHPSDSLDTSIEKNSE", "experiment": "Reporter gene assay (CRE/SPAP) in CHO cells, agonist potency relative to NECA, adenosine A3 receptor", "format": "cell-based", "design": "key: equipotent concentration ratio, NECA = 1", "conditions": "ECR = equipotent concentration ratio relative to NECA = 1, inhibition of forskolin-stimulated SPAP production", "experimental": "as §1, §2, §3"}},
  "data": [
    {"compound": "CC(C)c1nnc([C@H]2O[C@@H](n3cnc4c(NC5CCOCC5)ncnc43)[C@H](O)[C@@H]2O)[nH]1", "note": "[Example 141, (2R,3S,4R,5R)-2-(5-isopropyl-4H-1,2,4-triazol-3-yl)-5-[6-(tetrahydro-2H-pyran-4-ylamino)-9H-purin-9-yl]tetrahydrofuran-3,4-diol]", "values": [
      {"measurement": "Adenosine A1 receptor ECR*", "setting": "[1]", "result": 12.08},
      {"measurement": "Adenosine A3 receptor ECR*", "setting": "[2]", "result": 228}
    ]},
    {"compound": "Cc1cnc([C@H]2O[C@@H](n3cnc4c(Nc5ccc(F)cc5Cl)nc(Cl)nc43)[C@H](O)[C@@H]2O)o1", "note": "[Example 143, (2R,3R,4S,5S)-2-[2-chloro-6-(2-chloro-4-fluoroanilino)-9H-purin-9-yl]-5-(5-methyl-1,3-oxazol-2-yl)tetrahydrofuran-3,4-diol]", "values": [
      {"measurement": "Adenosine A1 receptor ECR*", "setting": "[1]", "result": 19.6},
      {"measurement": "Adenosine A3 receptor ECR*", "setting": "[2]", "result": ">74.1"}
    ]},
    {"compound": "CCc1cc([C@H]2O[C@@H](n3cnc4c(NC(CC)CC)nc(Cl)nc43)[C@H](O)[C@@H]2O)no1.O=CO", "note": "[Example 163, (2R,3R,4S,5R)-2-{2-chloro-6-[(1-ethylpropyl)amino]-9H-purin-9-yl}-5-(5-ethylisoxazol-3-yl)tetrahydrofuran-3,4-diol Formate]", "values": [
      {"measurement": "Adenosine A1 receptor ECR*", "setting": "[1]", "result": 1.34},
      {"measurement": "Adenosine A3 receptor ECR*", "setting": "[2]", "result": 232}
    ]},
    {"compound": "CCNS(=O)(=O)CCNc1ncnc2c1ncn2[C@@H]1O[C@H](c2cc(C(C)(C)C)no2)[C@@H](O)[C@H]1O", "note": "[Example 177, 2-[(9-{(2R,3R,4S,5S)-5-[3-(tert-butyl)isoxazol-5-yl]-3,4-dihydroxy-tetrahydrofuran-2-yl}-9H-purin-6-yl)amino]-N-ethylethane-sulfonamide]", "values": [
      {"measurement": "Adenosine A1 receptor ECR*", "setting": "[1]", "result": 2.01},
      {"measurement": "Adenosine A3 receptor ECR*", "setting": "[2]", "result": 122}
    ]},
    {"compound": "O[C@@H]1[C@H](O)[C@@H](c2nnc(C(F)(F)F)o2)O[C@H]1n1cnc2c(NC3CCCC3)ncnc21", "note": "[Example 178, (2R,3R,4S,5S)-2-[6-(cyclo-pentylamino)-9H-purin-9-yl]-5-[5-(trifluoromethyl)-1,3,4-oxadiazol-2-yl]-tetrahydrofuran-3,4-diol]", "values": [
      {"measurement": "Adenosine A1 receptor ECR*", "setting": "[1]", "result": 7.42},
      {"measurement": "Adenosine A3 receptor ECR*", "setting": "[2]", "result": ">471"}
    ]},
    {"compound": "CCOC(=O)N1CCC(Nc2ncnc3c2ncn3[C@@H]2O[C@H](c3nnc(C(F)(F)F)o3)[C@@H](O)[C@H]2O)CC1", "note": "[Example 180, ethyl 4-[(9-{(2R,3R,4S,5S)-3,4-dihydroxy-5-[5-(trifluoromethyl)-1,3,4-oxadiazol-2-yl]-tetrahydrofuran-2-yl}-9H-purin-6-yl)amino]-piperidine-1-carboxylate]", "values": [
      {"measurement": "Adenosine A1 receptor ECR*", "setting": "[1]", "result": 18.1},
      {"measurement": "Adenosine A3 receptor ECR*", "setting": "[2]", "result": ">471"}
    ]}
  ]
}
